Data on 6 molecules can be found in US5958935A, “Substituted 2-anilinopyrimidines useful as protein kinase inhibitors” (Celltech Therapeutics Limited, priority 1995, dated 1999).

Format in all cases: biochemical
One experiment has as its system remaining kinases. Kind of experiment: Selectivity over the remaining kinases described (p56^lck, p59^fyn, EGFr, ZAP-70, Csk, protein kinase C assays). The protocol: (§1) All assays were performed in 20 mM HEPES pH 7.5 containing 10 mM MgCl2, 10 mM MnCl2, 0.05% Brij, 1 μM ATP (0.5 μCi[γ-^33 P]ATP) and 0.8 mg/ml RR-src. […] After incubation at 30° C. for 15 min, the reaction was terminated by the addition of one-third volume of stop reagent (0.25 mM EDTA and 33 mM ATP in dH2 O). A 15 μl aliquot was removed, spotted onto a P-30 filtermat (Wallac, Milton Keynes, UK), and washed sequentially with 1% acetic acid and dH2 O to remove ATP. The bound ^33 P-RR-src was quantitated by scintillation counting of the filtermat in a Betaplate scintillation counter (Wallac, Milton Keynes, UK) after addition of Meltilex scintillant (Wallac, Milton Keynes, UK). The dpm obtained, being directly proportional to the amount of ^33 P-RR-src produced by p56^lck, were used to determine the IC50 for each compound.
IC50 values for each test inhibitor were determined as described previously in the p56^lck assay.
(§2) The tyrosine kinase activity of ZAP-70 was determined using a capture assay based on that employed above for p56^lck. The RR-src peptide was replaced with polyGlu-Tyr (Sigma; Poole, UK) at a final concentration of 17 μg/ml. After addition of the stopped reaction to the filtermat, trichloroacetic acid 10% (w/v) was employed as the wash reagent instead of acetic acid and a final wash in absolute ethanol was also performed before scintillation counting. IC50 values for each test inhibitor were determined as described above in the p56^lck assay.
Inhibitor activity against protein kinase C (PKC) was determined using PKC obtained from Sigma Chemical Company (Poole, UK) and a commercially available assay system (Amersham International plc, Little Chalfont, UK). Briefly, PKC catalyses the transfer of the γ-phosphate (^32 p) of ATP to the threonine group on a peptide specific for PKC.
Phosphorylated peptide is bound to phosphocellulose paper, subsequently quantified by scintillation counting and IC50 values determined as before.

A further experiment concerns protein kinase C (PKC). The experiment is described as follows: Protein kinase C assay. The note with it: for activity in the protein kinase C assay: in words. The protocol:
Inhibitor activity against protein kinase C (PKC) was determined using PKC obtained from Sigma Chemical Company (Poole, UK) and a commercially available assay system (Amersham International plc, Little Chalfont, UK). Briefly, PKC catalyses the transfer of the γ-phosphate (^32 p) of ATP to the threonine group on a peptide specific for PKC. Phosphorylated peptide is bound to phosphocellulose paper, subsequently quantified by scintillation counting and IC50 values determined as before.

The target in another experiment is T1, ZAP-70 (Homo sapiens, UniProt P43403).
T1 sequence (P43403 1-619): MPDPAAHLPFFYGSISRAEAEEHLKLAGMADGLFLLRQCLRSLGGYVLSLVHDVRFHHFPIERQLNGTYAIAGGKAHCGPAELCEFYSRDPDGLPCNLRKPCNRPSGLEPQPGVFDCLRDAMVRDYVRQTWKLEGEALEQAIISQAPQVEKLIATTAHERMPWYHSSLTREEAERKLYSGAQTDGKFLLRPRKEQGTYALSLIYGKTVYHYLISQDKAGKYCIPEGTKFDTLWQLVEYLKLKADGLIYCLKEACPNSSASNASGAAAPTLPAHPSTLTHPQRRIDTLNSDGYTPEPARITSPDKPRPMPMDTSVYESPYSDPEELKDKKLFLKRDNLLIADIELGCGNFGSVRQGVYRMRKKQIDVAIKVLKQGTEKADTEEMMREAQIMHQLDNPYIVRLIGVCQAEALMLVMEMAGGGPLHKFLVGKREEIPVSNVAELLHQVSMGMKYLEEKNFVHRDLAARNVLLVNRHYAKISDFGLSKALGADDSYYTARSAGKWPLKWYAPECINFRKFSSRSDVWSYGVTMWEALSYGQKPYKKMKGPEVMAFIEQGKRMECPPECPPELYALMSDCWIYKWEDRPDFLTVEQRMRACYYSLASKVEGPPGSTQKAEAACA
The experiment is described as follows: ZAP-70 kinase assay. The note with it: polyGlu-Tyr 17 μg/ml. The protocol:
as §2

Another experiment concerns the target human p56^lck (Homo sapiens, UniProt P06239). The experiment is described as follows: p56^lck kinase assay. The note with it: 1 μM ATP, RR-src, pH 7.5, 30° C., 15 min. The protocol: The tyrosine kinase activity of p56^lck was determined using a RR-src peptide (RRLIEDNEYTARG) and [γ-^33 P]ATP as substrates. Quantitation of the ^33 P-phosphorylated peptide formed by the action of p56^lck was achieved using an adaption of the method of Geissler et al (J. Biol. Chem. (1990) 265, 22255-22261).
as §1

In another experiment the test system is human p59^fyn. The experiment is described as follows: p59^fyn kinase assay. The conditions noted are these: in words. The protocol: Compounds of the invention were assayed for p59^fyn inhibitory activity in a similar manner to the p56^lck assay, using human p59^fyn.
The mark [1] stands for this setting: relative to ZAP-70, remaining = other than ZAP-70 and protein kinase C.
Setting [2] is: relative to p56^lck, remaining = other than p56^lck and p59^fyn.
Setting [3] is: relative to protein kinase C, remaining = other than protein kinase C.

Chain of human p56^lck (P06239 whole entry): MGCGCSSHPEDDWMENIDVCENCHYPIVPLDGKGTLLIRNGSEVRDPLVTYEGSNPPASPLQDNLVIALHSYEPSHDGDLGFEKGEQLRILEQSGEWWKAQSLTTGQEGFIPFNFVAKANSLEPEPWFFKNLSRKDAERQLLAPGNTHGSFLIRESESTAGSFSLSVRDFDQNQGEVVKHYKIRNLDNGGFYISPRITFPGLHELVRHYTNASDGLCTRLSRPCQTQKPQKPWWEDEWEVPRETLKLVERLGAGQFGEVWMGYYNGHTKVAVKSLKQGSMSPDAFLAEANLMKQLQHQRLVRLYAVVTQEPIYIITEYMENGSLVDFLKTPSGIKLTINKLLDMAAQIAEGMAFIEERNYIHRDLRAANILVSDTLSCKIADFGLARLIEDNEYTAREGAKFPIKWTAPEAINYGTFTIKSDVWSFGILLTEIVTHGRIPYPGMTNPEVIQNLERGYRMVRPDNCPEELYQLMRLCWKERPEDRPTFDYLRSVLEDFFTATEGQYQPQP

For `COc1cc(Nc2nccc(-c3ccc(NCCN)nc3)n2)cc(OC)c1OC` [Example 64, 4-(2-(2-Aminoethylamino)pyridin-5-yl)-N-(3,4,5-trimethoxyphenyl)-2-pyrimidineamine], the “IC50 values at least 10× greater against the remaining kinases” value (“IC50 values … against the remaining kinases” for short) with remaining kinases (setting [1]) was “at least 10 ×”. Further, in the experiment with protein kinase C (PKC), the “activity in the protein kinase C assay” value is given as “active”. Further, on ZAP-70, inhibition was half-maximal at 124 nM (IC50).

`COc1cc(Nc2nccc(-c3ccc(NCCCN)nc3)n2)cc(OC)c1OC` [Example 66, 4-(2-(3-Aminopropylamino)pyridin-5-yl)-N-(3,4,5-trimethoxyphenyl)-2-pyrimidineamine]: the “IC50 values … against the remaining kinases” value in the experiment with remaining kinases (setting [1]) is given as “at least 10 ×”. Also, the “activity in the protein kinase C assay” value in the experiment on protein kinase C (PKC) is given as “active”. The molecule further registered an IC50 against ZAP-70 of 68 nM.

`CCOC(=O)Cc1ccc(Nc2ccnc(Nc3cc(OC)c(OC)c(OC)c3)n2)cc1` [Example 103, N4-(4-(Ethoxycarbonylmethyl)phenyl)-N2-(3,4,5-trimethoxyphenyl)-2,4-pyrimidinediamine]: the “IC50 values … against the remaining kinases” value in the experiment on remaining kinases (setting [2]) is “at least 10 ×”. The molecule further yielded an IC50 against human p56^lck of 40 nM. In addition, in the experiment with human p59^fyn, the “activity against p59^fyn” value is “active”.

For `COc1cc(Nc2nccc(-c3cccc(OCCCN)c3)n2)cc(OC)c1OC.Cl.Cl` [Example 48, 4-(3-(3-Aminopropoxy)phenyl)-N-(3,4,5-trimethoxyphenyl)-2-pyrimidineamine dihydrochloride], the “IC50 values … against the remaining kinases” value in the experiment with remaining kinases (setting [3]) is on record as “at least 10 ×”. At protein kinase C (PKC), this molecule showed an IC50 of 22 nM.

As for `COc1ccc(Nc2ccnc(Nc3cc(OC)c(OC)c(OC)c3)n2)cc1OC` [Example 96, N4-(3,4-Dimethoxyphenyl)-N2-(3,4,5-trimethoxyphenyl)-2,4-pyrimidinediamine], in the experiment with remaining kinases (setting [2]), the “IC50 values … against the remaining kinases” value was “at least 10 ×”. It took 215 nM to reach half-maximal inhibition on human p56^lck (IC50). In addition, the “activity against p59^fyn” value in the experiment on human p59^fyn is on record as “active”.

On to `COc1cc(Nc2nccc(-c3ccc(NCCC4CCCN4C)nc3)n2)cc(OC)c1OC` (stereo not shown) [Example 81, 4-(2-(2-(1-Methylpyrrolidin-2-yl)ethylamino)pyridin-5-yl)-N-(3,4,5-trimethoxyphenyl)-2-pyrimidineamine], for which the “IC50 values … against the remaining kinases” value in the experiment with remaining kinases (setting [3]) is “at least 10 ×”. Also, the IC50 at protein kinase C (PKC) turned out to be 92 nM.
